Source: patent EP0545103A1, “Insecticidal, acaricidal and molluscicidal 1-(substituted) thioalkylpyrroles” (priority 1991, dated 1993)

What was measured:
Assay type in all cases: in vivo
[1] = system: Aphis fabae, mixed instar, bean aphid; assay: Bean aphid spray test on nasturtium; parameters: key: 0: no effect; 10-25% kill; 26-35% kill; 36-45% kill; 46-55% kill; 56-65% kill; 66-75% kill; 76-85% kill; 86-99% kill; 9: 100% kill; details: 100 ppm; spray; mortality rating after 2 days
Method: (§1) Test solutions are prepared by dissolving the test compound in a 35% acetone in water mixture to give a concentration of 10,000 ppm. Subsequent dilutions are made with water as needed.
Aphis fabae, mixed instar, bean aphid
Pots containing single nasturtium plants (Tropaeolum sp.) about 5 cm tall are infested with about 100-200 aphids one day prior to treatment. Each pot is sprayed with the test solution for 2 revolutions of a 4 rpm turntable in a hood, using a #154 DeVilbiss atomizer. The spray tip is held about 15 cm from the plant and the spray directed so as to give complete coverage of the plants and the aphids. The sprayed pots are set on their sides on white enamel trays and mortality estimates are made after 2 days.
(§2) All of the above tests are rated according to the rating scale shown below.

[2] = system: Spodoptera eridania, 3rd instar larvae, southern armyworm; assay: Southern armyworm systemic uptake (stem systemic) test; parameters: key: 0: no effect; 10-25% kill; 26-35% kill; 36-45% kill; 46-55% kill; 56-65% kill; 66-75% kill; 76-85% kill; 86-99% kill; 9: 100% kill; details: cut stem in emulsion 3 days
Description: Spodoptera eridania, systemic uptake, 3rd instar larvae, southern armyworm
Subsequent 10-fold dilutions are made with water as needed. Sieva limabean plants, with the primary leaves expanded to a length of 7-8 cm, are cut off at least 3 cm above the soil level to avoid contamination with soil bacteria which will cause decay of the stem during the test. The cut stem is placed in the test emulsion and wrapped with a bit of cotton to hold the stem off the bottom of the bottle and to limit evaporation. The treated stem is thus maintained for 3 days at 27° C to allow the test compound to be taken up into the plant. Following this, one leaf is removed from the plant and placed in a 100 x 10 mm petri dish with 10 southern armyworms as described above. Mortality counts and observations of feeding damage are made 3 and 5 days later.
as §2

[3] = system: Heliothis virescens, egg, tobacco budworm; assay: Tobacco budworm egg test, dipped cotton leaf and eggs; parameters: key: 0: no effect; 10-25% kill; 26-35% kill; 36-45% kill; 46-55% kill; 56-65% kill; 66-75% kill; 76-85% kill; 86-99% kill; 9: 100% kill; details: 1000 ppm; mortality rating after 3 days
Method: as §1
Heliothis virescens, egg, tobacco budworm
A young cotton leaf about 6-7cm in length is dipped in an agitated test suspension for about 3 seconds. Eggs are collected on a cheesecloth and the cloth is cut into 10-20mm squares, each containing approximately 50-100 eggs which are 6-30 hours old. The egg-containing cheesecloth square is similarly dipped in a test suspension and placed on a treated cotton leaf. The combination is dried in a hood and then placed in an 8 ounce Dixie® cup #2168-ST (240ml volume, 6cm tall, 9.5cm top diameter, 8.0cm bottom diameter) into which a 5cm length of damp dental wick has been placed. The cup is covered with a clear plastic lid and held for 3 days, after which mortality counts are made.
as §2

[4] = system: Heliothis virescens, 3rd instar tobacco budworm; assay: Tobacco budworm 3rd instar test, dipped cotton cotyledons; parameters: key: 0: no effect; 10-25% kill; 26-35% kill; 36-45% kill; 46-55% kill; 56-65% kill; 66-75% kill; 76-85% kill; 86-99% kill; 9: 100% kill; details: mortality rating after 3 days
Method: as §1
Heliothis virescens, 3rd instar tobacco budworm
Cotton cotyledons are dipped in the test solution and allowed to dry in a hood. When dry, each is cut into quarters and ten sections are placed individually in 30 mL plastic medicine cups containing a 5-7mm long piece of damp dental wick. One 3rd instar caterpillar is added to each cup and the cup is sealed with MYLAR® film. Treatments are maintained for 3 days before a mortality count and observation of reduction in feeding damage are made.
as §2

[5] = system: Tetranychus urticae (OP-resistant strain), 2-spotted spider mite; assay: 2-spotted spider mite test, dipped infested limabean plants; parameters: key: 0: no effect; 10-25% kill; 26-35% kill; 36-45% kill; 46-55% kill; 56-65% kill; 66-75% kill; 76-85% kill; 86-99% kill; 9: 100% kill; details: for OP-RESISTANT MITES Adult: mortality rating after 2 days; for OP-RESISTANT MITES Egg / OP-RESISTANT MITES Nymph: rating after 5 days
Method: as §1
Tetranychus urticae (OP-resistant strain), 2-spotted spider mite
Sieva limabean plants with primary leaves expanded to 7-8 cm are selected and cut back to one plant per pot. A small piece is cut from an infested leaf taken from the main colony and placed on each leaf of the test plants. This is done about 2 hours before treatment to allow the mites to move over to the test plant and to lay eggs. The size of the cut, infested leaf is varied to obtain about 100 mites per leaf. At the time of test treatment, the piece of leaf used to transfer the mites is removed and discarded. The newly mite-infested plants are dipped in the test solution for 3 seconds with agitation and set in the hood to dry. After 2 days one leaf is removed and mortality counts are made. After 5 days, another leaf is removed and observations are made of mortality of the eggs and/or newly emerged nymphs.
as §2

[6] = system: Diabrotic undecimpunctata howardi, 3rd instar southern corn rootworm; assay: Southern corn rootworm soil test; parameters: key: 0: no effect; 10-25% kill; 26-35% kill; 36-45% kill; 46-55% kill; 56-65% kill; 66-75% kill; 76-85% kill; 86-99% kill; 9: 100% kill; details: mortality rating after 6 days
Method: Diabrotic undecimpunctata howardi, 3rd instar southern corn rootworm
One cc of fine talc is placed in a 30 mL wide-mouth screw-top glass jar. One mL of the appropriate acetone test solution is pipetted onto the talc so as to provide 1.25 and 0.25 mg of active ingredient per jar. The jars are set under a gentle air flow until the acetone is evaporated. The dried talc is loosened, 1 cc of millet seed is added to serve as food for the insects and 25 mL of moist soil is added to each jar. The jar is capped and the contents thoroughly mixed on a Vortex Mixer. Following this, ten 3rd instar rootworms are added to each jar and the jars are loosely capped to allow air exchange for the larvae. The treatments are held for 6 days when mortality counts are made. Missing larvae are presumed dead, since they decompose rapidly and can not be found. The concentrations used in this test correspond approximately to 50 and 10 kg/ha, respectively.
as §2

[7] = system: Empoasca abrupta, adult, western potato leafhopper; assay: Western potato leafhopper systemic uptake test; parameters: key: 0: no effect; 10-25% kill; 26-35% kill; 36-45% kill; 46-55% kill; 56-65% kill; 66-75% kill; 76-85% kill; 86-99% kill; 9: 100% kill; details: 100 ppm; cut stem in emulsion 3 days; mortality rating after 2 days
Method: Empoasca abrupta, adult, western potato leafhopper Systemic Uptake
An emulsion containing 0.1 gm of the test material, 0.2 gm of Emulphor EL-620® emulsifier, 10 mL of acetone and 90 mL of water is prepared and diluted 10-fold with water to give a 100 ppm emulsion. Subsequent 10-fold dilutions are made with water as needed. Sieva limabean plants, with the primary leaves expanded to a length of 7-8 cm, are cut off at least 3 cm above the soil level to avoid contamination with soil bacteria which will cause decay of the stem during the test. The cut stem is placed in the test emulsion and wrapped with a bit of cotton to hold the stem off the bottom of the bottle and to limit evaporation. The treated stem is maintained for 3 days at 27°C to allow the test compound to be taken up into the plant. Following this, one leaf is removed from the plant and placed in a 100 x 10 mm petri dish containing a moist filter paper and about 10 adult leafhoppers as described above. Mortality counts are made after 2 days.
as §2

[8] = system: Spodoptera eridania, 3rd instar larvae, southern armyworm; assay: Southern armyworm 7-day residual test; details: R designates Residual: 7-day residual foliage, concentration not given
Method: as §1
Spodoptera eridania, 3rd instar larvae, southern armyworm, 7-day residual
The limabean leaves treated in the above test are maintained under high intensity lamps in the greenhouse for 7 days. These lamps duplicate the effects of a bright sunny day in June in New Jersey and are kept on for 14 hour day length. After 7 days, the foliage is sampled and assayed as in the above-said test.
as §2

[9] = system: Spodoptera eridania, 3rd instar larvae, southern armyworm; assay: Southern armyworm 3rd instar test, dipped limabean leaf; details: for ARMYWORM Day 3: rating at 3 days; for ARMYWORM Day 5: rating at 5 days
Method: as §1
Spodoptera eridania, 3rd instar larvae, southern armyworm
A Sieva limabean leaf expanded to 7-8 cm in length is dipped in the test solution with agitation for 3 seconds and allowed to dry in a hood. The leaf is then placed in a 100 x 10 mm petri dish containing a damp filterpaper on the bottom and ten 3rd instar caterpillars. At 3 and 5 days, observations are made of mortality, reduced feeding, or any interference with normal molting.
as §2

[10] = system: Empoasca abrupta, adult, western potato leafhopper; assay: Western potato leafhopper contact test, dipped limabean leaf; details: mortality rating after 2 days
Method: as §1
Empoasca abrupta, adult, western potato leafhopper
A Sieva limabean leaf about 5 cm long is dipped in the test solution for 3 seconds with agitation and placed in a hood to dry. The treated leaf is placed in a 100 x 10 mm petri dish containing a moist filter paper and about 10 adult leafhoppers are added. After 2 days, mortality counts are made.
as §2

| Compound | APHIDS [1] | ARMYWORM Stem Sys [2] | TOBACCO BUDWORM Egg [3] | OP-RESISTANT MITES Adult ([5]; 10 ppm) | OP-RESISTANT MITES Egg ([5]; 10 ppm) | OP-RESISTANT MITES Egg ([5]; 100 ppm) | OP-RESISTANT MITES Egg ([5]; 300 ppm) | OP-RESISTANT MITES Nymph ([5]; 300 ppm) | LEAFHOPPER Systemic [7] | ARMYWORM Day 3 ([9]; 10 ppm) | ARMYWORM Day 5 ([9]; 10 ppm) | ARMYWORM Day 3 ([9]; 100 ppm) | ARMYWORM Day 5 ([9]; 100 ppm) | ARMYWORM Day 3 ([9]; 1000 ppm) | ARMYWORM Day 5 ([9]; 1000 ppm) | OP-RESISTANT MITES Adult ([5]; 100 ppm) | OP-RESISTANT MITES Adult ([5]; 300 ppm) | LEAFHOPPER Contact ([10]; 10 ppm) | LEAFHOPPER Contact ([10]; 100 ppm) | other results |
| --- | --- | --- | --- | --- | --- | --- | --- | --- | --- | --- | --- | --- | --- | --- | --- | --- | --- | --- | --- | --- |
| N#Cc1c(Cl)c(C(F)(F)F)n(CSC2=NCCCN2)c1-c1ccc(Cl)cc1 [Example 5] | 0 | 8 (86-99% kill) | 0 | 0 | 0 | 9 (100% kill) | 0 | 0 | 8 (86-99% kill) |  |  |  |  |  |  |  |  |  |  | TOBACCO BUDWORM 3rd Instar ([4]; 10 ppm): 0; TOBACCO BUDWORM 3rd Instar ([4]; 100 ppm): 9 (100% kill); TOBACCO BUDWORM 3rd Instar ([4]; 1000 ppm): 9 (100% kill); OP-RESISTANT MITES Nymph ([5]; 10 ppm): 0; SOUTHERN CORN ROOTWORM ([6]; 50 (ppm as headed)): 0; ARMYWORM Day 3 R ([8]; rating at 3 days): 9 (100% kill); ARMYWORM Day 5 R ([8]; rating at 5 days): 9 (100% kill) |
| CCOC(=S)SCn1c(-c2ccc(Cl)cc2)c(C#N)c(Cl)c1C(F)(F)F [Example 23] | 5 (56-65% kill) |  | 0 | 9 (100% kill) | 9 (100% kill) | 9 (100% kill) | 0 | 9 (100% kill) | 0 | 9 (100% kill) | 9 (100% kill) | 9 (100% kill) | 9 (100% kill) | 9 (100% kill) | 9 (100% kill) | 9 (100% kill) | 9 (100% kill) | 9 (100% kill) | 9 (100% kill) | SOUTHERN CORN ROOTWORM ([6]; 1 (ppm as headed)): 0 |
| CC(C)OC(=S)SCn1c(-c2ccc(Cl)cc2)c(C#N)c(Cl)c1C(F)(F)F [Example 22] | 7 (76-85% kill) | 0 | 0 | 9 (100% kill) | 9 (100% kill) | 9 (100% kill) | 0 | 9 (100% kill) | 0 | 9 (100% kill) | 9 (100% kill) | 9 (100% kill) | 9 (100% kill) | 9 (100% kill) | 9 (100% kill) | 9 (100% kill) | 9 (100% kill) | 9 (100% kill) | 9 (100% kill) |  |
